{"source": "paper PMC3481155", "about": "“AhR activation underlies the CYP1A autoinduction by A-998679 in rats” (Frontiers in Genetics, 2012)", "key": {"AhR gene battery": {"system": "AhR gene battery", "assay": "Rat liver mRNA profiling of the AhR gene battery", "assay_type": "in vivo", "conditions": "5 days", "protocol": "(§1) All animal experiments were conducted in accordance with the Guiding Principles in the Use of Animals in Toxicology (http://www.toxicology.org/ai/air/air6.asp) and were approved by Abbott's Institutional Animal Care and Use Committee (IACUC). Male Sprague-Dawley rats [Crl:CD®(SD)IGS BR], weighing ~250 g at study initiation were obtained from Charles River Laboratories, Inc. (Wilmington, MA). Rats were housed singly in ventilated, stainless steel, wire-bottom hanging cages and fed non-certified Rodent Chow (Harlan Labs, Madison, WI), and water ad libitum and acclimated for at least 5 days after arrival. […] Serum clinical chemistry parameters were quantified using an Aeroset Clinical Chemistry Analyzer (Abbott Laboratories, Abbott Park, IL) and included alanine amino transferase (ALT), aspartate amino transferase (AST), gamma glutamyltransferase (GGT), and alkaline phosphatase (ALP) activities.\nFrozen liver or jejunum were immediately added to 4 ml of TRIzol reagent (Invitrogen Life Technologies) and homogenized using a Polytron 300D homogenizer (Brinkman Instruments, Westbury, NY). […] Nucleic acid concentration was determined by OD 260 nm (Smart-Spec, Bio-Rad Laboratories, Hercules, CA), and RNA integrity was evaluated using an Agilent 2100 bioanalyzer (Agilent Technologies, Foster City, CA). […]"}, "CYP2C19": {"biological_target": "T1, CYP2C19 (Homo sapiens, UniProt P33261)", "T1 construct": "from tissue; host or cells: human liver microsomes", "T1 sequence (P33261 whole entry)": "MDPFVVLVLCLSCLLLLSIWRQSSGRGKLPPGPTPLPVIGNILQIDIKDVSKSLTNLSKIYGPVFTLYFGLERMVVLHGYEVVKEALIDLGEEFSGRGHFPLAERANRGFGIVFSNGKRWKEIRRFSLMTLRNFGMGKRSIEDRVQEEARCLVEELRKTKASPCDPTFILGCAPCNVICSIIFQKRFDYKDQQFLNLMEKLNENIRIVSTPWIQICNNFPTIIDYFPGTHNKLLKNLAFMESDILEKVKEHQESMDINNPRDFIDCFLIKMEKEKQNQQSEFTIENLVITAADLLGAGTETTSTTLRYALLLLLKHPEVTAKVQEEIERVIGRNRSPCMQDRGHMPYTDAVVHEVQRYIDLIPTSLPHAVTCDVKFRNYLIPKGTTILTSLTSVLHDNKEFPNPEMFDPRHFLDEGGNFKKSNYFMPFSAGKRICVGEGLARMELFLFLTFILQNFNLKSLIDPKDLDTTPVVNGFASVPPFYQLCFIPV", "assay": "CYP inhibition evaluation in human liver microsomes, CYP2C19 (S-mephenytoin)", "assay_type": "in vitro ADME", "conditions": "probe substrate S-mephenytoin", "protocol": "(§2) Incubations were performed in human liver microsomes using probe substrate concentrations similar to their corresponding Km values. Enzyme activity was evaluated in the presence of various concentrations of A-998679. The incubations consisted of the test article at varying concentrations (0–30 μM), probe substrate (concentration ~Km, see Table A2), human liver microsomal protein and 1 mM NADPH in 50 mM phosphate buffer at pH 7.4. Relative quantitation of the metabolites was obtained by LC-MS/MS using an ABSciex (Foster City, CA) API3000 or API4000 Qtrap hybrid linear ion trap mass spectrometer equipped with a TurboIonspray source using either PerkinElmer series 200 pumps or Agilent 1100 series pump with a Leap autosampler. Analytes were separated using a Phenomenex Prodigy ODS(3) 5 μm, 50 × 2.0 mm column at 50°C, eluted and detected under the specific conditions listed in Tables A3, A4, and A5. The analyte to internal standard peak area ratios were determined using Analyst 1.4 software (Applied Biosytems, Carlsbad, CA). The peak area ratios observed in the presence of test article were compared to the vehicle control in order to determine percent activity. To determine the IC50, the data were plotted as Log [dose] μM vs. % inhibition, and analyzed with a sigmoidal dose-response (variable slope) fitting equation. […]"}, "CYP1A2": {"system": "CYP1A2", "assay": "CYP inhibition evaluation in human liver microsomes, CYP1A2 (phenacetin)", "assay_type": "in vitro ADME", "conditions": "pH 7.4, probe substrate phenacetin", "protocol": "as §2"}, "Cyp1a1": {"system": "Cyp1a1", "assay": "Immunohistochemistry of Cyp1a1 in rat liver", "assay_type": "in vivo", "conditions": "5 days of treatment; not detectable in control livers", "protocol": "as §1, with “arrival. Rats were randomly assigned to various treatment groups (3 rats/group) and were dosed once daily by oral gavage with vehicle (0.2% hydroxypropylmethylcellulose at a dose volume of 10 ml/kg) or with 30, 100, or 200 mg/kg of A-998679. All rats were fasted overnight after their last dose, weighed and sacrificed under isoflurane anesthesia.” for “arrival.”, “activities. […]” for “activities.”"}}, "note": "pIC50: −log10 of the molar value."}
{"smiles": "N#Cc1cccc(-c2noc(-c3cccnc3)n2)c1", "note": "[A-998679, 3-(5-pyridin-3-yl-1,2,4-oxadiazol-3-yl) benzonitrile]", "values": [{"measurement": "expression of members of the AhR gene battery (Gst isoforms, Nqo1, Aldh, AhR) in rat liver", "setting": "AhR gene battery", "result": "upregulated"}, {"measurement": "pIC50", "setting": "CYP2C19", "result": "< 4.52"}, {"measurement": "pIC50", "setting": "CYP1A2", "result": 6.34}, {"measurement": "Cyp1a1 immunostaining in rat liver", "setting": "Cyp1a1", "result": "moderate levels in centrilobular regions"}]}
